Measurements reported in US10647990B2, “Rice high temperature resistance gene and use in crop breeding resistance to high temperature thereof” (SHANGHAI INSTITUTES FOR BIOLOGICAL SCIENCES, CHINESE …, priority 2014, dated 2020).
Entries after “also recorded” stand apart in the source; their conditions may differ. Peptide text beside a SMILES is read from it. * marks the point of attachment. Cbz = O=C(OCc1ccccc1)*

System: rice
Assay: MG132 treatment of rice during high temperature treatment (blocking the 26S proteasome degradation pathway)
Type: in vivo, Oryza sativa
Settings: under high temperature stress; MG132 0 μM, 50 μM, 100 μM; FIG. 6G, H

SMILES: CC(C)C[C@@H](C=O)NC(=O)[C@H](CC(C)C)NC(=O)[C@H](CC(C)C)NC(=O)OCc1ccccc1 [MG132] (Cbz-Leu-Leu-Leu-aldehyde)
- high temperature resistance of rice: high temperature sensitive phenotype; also recorded: can reduce the high temperature resistance of rice
